Legend:
Dog intraocular pressure = assay: Intraocular pressure in dogs by applanation pneumatonometry; type: in vivo; details: 25 μl to the ocular surface, contralateral eye vehicle, IOP before drug administration and at 6 hours thereafter
Protocol: The effects of the compounds of this invention on intraocular pressure are also measured. The compounds are prepared at the said concentrations in a vehicle comprising 0.1% polysorbate 80 and 10 mM TRIS base. Dogs are treated by administering 25 μl to the ocular surface, the contralateral eye received vehicle as a control. Intraocular pressure is measured by applanation pneumatonometry. Dog intraocular pressure is measured immediately before drug administration and at 6 hours thereafter.

intraocular pressure = assay: Intraocular pressure in glaucomatous cynomolgus monkeys; type: in vivo; details: glaucomatous cynomonlgus monkeys

Row | SMILES | ocular hypotensive effect (Dog intraocular pressure) | ocular hypotensive effect (intraocular pressure)
1 | C=CCOC(=O)CCC/C=C\C[C@H]1C(=O)C[C@@H](O)[C@@H]1/C=C/[C@@H](O)CCc1sc2ccccc2c1Cl [6(a), (Z)-7-{(1R,2R,3R,5S)-2-[(E)-(S)-5-(3-Chlorobenzo[b]thiophen-2-yl)-3-hydroxypent-1-enyl]-3-hydroxy-5-oxocyclopentyl}hept-5-enoic acid allyl ester] | pronounced ocular hypotensive effect | –
2 | O=C(O)CCC/C=C\C[C@H]1C(=O)C[C@@H](O)[C@@H]1/C=C/[C@@H](O)CCc1sc2ccccc2c1Cl [7(a), (Z)-7-{(1R,2R,3R,5S)-2-[(E)-(S)-5-(3-Chlorobenzo[b]thiophen-2-yl)-3-hydroxypent-1-enyl]-3-hydroxy-5-oxocyclopentyl}hept-5-enoic acid] | – | pronounced ocular hypotensive effect

From patent US6670485B2, “Prostanoic acid derivatives as agents for lowering intraocular pressure” (Allergan, Inc., priority 2001, dated 2003)
